Measurements taken from patent US8557804B2, “Nicotinic receptor agonists for the treatment of inflammatory diseases” (priority 2002, dated 2013).
Values joined by “and” are separate entries in the source; they are usually repeats but may differ in a detail not shown here. Equal entries are not always repeated. “Also recorded” adds a separate entry of the source. Structures can show the parent of a compound that is named as a salt. Where two headings read alike, the source gives them in different places.

How the values were obtained:
[1] = tested on: lung inflammation in dogs sensitized to Ascaris suum; test: Dog asthma model (Ascaris suum), cellular inflammation in bronchoalveolar lavages; assay type: in vivo; settings: ASM-002 8 mg/kg (4 mg/kg 2× day in the food); prednisone 1 mg/kg 1× day; n=12
Experimental: (§1) In this model 12 dogs naturally sensitized to the roundworm Ascaris suum were used in a cross-over study design. Four groups of 3 dogs were randomly formed, exposed to the allergen, and each animal was left either untreated or received alternatively, ASM-002 (4 mg/kg 2× day in the food), or prednisone (1 mg/kg 1× day in the food), the most commonly used corticosteroid drug used to treat inflammation in asthma.
Cellular inflammation was evaluated in the bronchoalveolar lavages.

[2] = tested on: lung resistance after metacholine challenge; test: Airway hyper-reactivity / lung resistance to metacholine in asthmatic mice (FlexiVENT); assay type: in vivo; settings: ASM-002 4 mg/kg intra-nasal 3 days and 10 minutes prior to challenge; Salbutamol 10 minutes before
Experimental: Airway hyper-reactivity (AHR) in response to metacholine was measured in anesthetized, tracheotomized, ventilated mice using a computer-controlled ventilator (FlexiVENT™).
Increasing doses of metacholine (0 mg/kg-32.5 mg/kg) were administered through the jugular vein.
Lung response to a broncho-constrictive agent, metacholine, was measured by a Flexi-vent® apparatus. Ovalbumin-sensitized animals were treated intra-nasally with ASM-002 (4 mg/kg) during 3 days and 10 minutes prior to the metacholine challenge and compared to untreated OVA-sensitized animals. A negative control group of un-sensitized animals and a positive control group that received Salbutamol (Ventolin) 10 minutes before the metacholine challenge were also included.

[3] = tested on: lung resistance in hyperresponsive dogs; test: Dog model of lung hyper-responsiveness to metacholine; assay type: in vivo; settings: 12 hyperresponsive dogs
Experimental: as §1
Hyper-responsiveness is described as the capacity of the lung to react (to increase lung resistance) to a non-specific external stimuli like metacholine or to allergens A hyper-responsive allergen-sensitized dog (asthmatic) will react to lower concentrations of metacholine compared to a non allergic dog. Similarly, improvement in lung hyper-responsiveness is shown by an increase in metacholine concentrations necessary to induce the same level of lung resistance.
Increasing concentrations of metacholine were administered with or without treatment with ASM-002 or Prednisone™ and lung resistance recorded.

[4] = tested on: allergic inflammation of the lungs in ovalbumin-sensitized mice; test: Ovalbumin-sensitized mouse asthma model, BAL cell counts; assay type: in vivo, Balb/c mice; settings: Mus musculus, 72 h; intra-nasal 0.5 to 4 mg/kg/d for 3 days, n=8; read-out: ED50, cellular inflammation in the lungs (BAL cells)
Experimental: Groups of Balb/c mice were sensitized by intra-peritoneal injection of 20 μg OVA protein (chicken egg albumin; Sigma-Aldrich) emulsified in 2 mg aluminum hydroxide in PBS. After 4 weeks, challenge doses of 1.5%/50 μl OVA were administered intranasally. The challenge was performed daily for 3 consecutive days and then the mice assessed for allergic inflammation of the lungs 24 h after the last aerosol exposure. Groups of mice were treated with various concentrations of DMPP during the challenge period. Broncho-alveolar lavage (BAL) was performed and the fluid centrifuged at 400 g to separate cells from liquid.
Ovalbumin-sensitized mice (n=8) were challenged with the allergen and simultaneously treated intra-nasally with increasing concentrations of ASM-002 (0.5 to 4 mg/kg/d) for 3 days. The number of cells recovered by broncho-alveolar lavage was used as a measure of lung inflammation.

[5] = tested on: TNF release by human blood monocytes; test: cells; assay type: cell-based
Experimental: Human monocytes were isolated from the blood of asthmatic patients by Ficoll-paque density gradient, let to adhere to tissue culture plates and stimulated with LPS (100 ng/ml) for 18 hours at 37° C. with or without increasing concentrations of nicotine. The release of TNF, a potent pro-inflammatory mediator, was measured in the cell culture supernatant by the ELISA method. Results are expressed as a percentage release from LPS-stimulated untreated cells (FIG. 28).
Tumor necrosis factor (TNF) is a mediator released in inflammatory states.
Human blood monocytes were isolated by Ficoll-paque density gradient, let to adhere to tissue culture plates and stimulated with LPS (100 ng/ml) for 18 hours at 37° C. with or without increasing concentrations of nicotine analogues.

[6] = tested on: mouse tracheal airway smooth muscle; test: Isometric study on isolated mouse tracheas pre-contracted with metacholine; settings: cumulative doses, p=0.002
Experimental: Tracheal rings were mounted isometrically to force transducers in organ baths containing Krebs bicarbonate solution at 37° C. and bubbled with 95% O2-5% CO2, pre-contracted with submaximal concentration of metacholine (10^−5) and cumulative doses of the analogs were added to the baths. Changes of tension are recorded. Results are expressed as a percentage of maximal contraction (FIG. 29).
(§2) As described previously, tracheal or bronchial rings were mounted isometrically to force transducers in organ baths containing Krebs bicarbonate solution at 37° C. and bubbled with 95% O2-5% CO2, pre-contracted with submaximal concentration of metacholine cumulative doses of ASM-002 added. Changes of tension are recorded. Results are expressed as a percentage of maximal contraction for mouse (FIG. 34, p=0.002), dog (FIG. 35, p=0.004) and human (FIG. 36)

human bronchial rings = test: Isometric study on human bronchial rings pre-contracted with metacholine; settings: cumulative doses
Experimental: as §2

[7] = tested on: LTC4 release by blood eosinophils; test: LTC4 production by PAF-stimulated blood eosinophils (enzyme immunoassay); assay type: cell-based, human; settings: for LTC4: eosinophils pre-incubated 18 hours with analog, PAF stimulated, untreated 1725.80
Experimental: Blood eosinophils, the most increased inflammatory cells in asthma, were isolated by negative selection using bead-conjugated anti-CD16 monoclonal antibody and magnetic activating cell sorting. Cells were pre-Incubated for 18 hours with the various DMPP analogs and then stimulated with 1 µM platelet-activating factor (PAF) to produce LTC4 which was measured by enzyme immunoassay.
Human blood eosinophils were isolated from blood of asthmatic patients, stimulated in vitro with platelet activating factor (PAF) to produce large amounts of LTC4, and treated or not with 80 μM ASM-002.

dog bronchial rings = test: Isometric study on dog bronchial rings pre-contracted with metacholine; settings: cumulative doses, p=0.004
Experimental: as §2

blood eosinophils = test: Blood eosinophil transmigration through an artificial basement membrane (Matrigel coated chemotaxis chamber); assay type: cell-based
Source text: Infiltration of eosinophils and other inflammatory cells into lung tissues is an important feature of asthma and the cause of airway inflammation and hyper-responsiveness. The passage of inflammatory cells from the circulation to the lung involves migration through the vascular endothelium, the basement membrane, and extra-cellular matrix components. Inflammatory cells cross the basement membrane by producing proteinases. In these preliminary in vitro experiments, the effects of various nicotinic agonists on the migration of purified blood eosinophils through an artificial basement membrane (Matrigel® coated chemotaxis chamber) were investigated. […] Results are expressed as a percentage of inhibition (agonists-treated cells) compared to the control condition without the agonists.

[8] = reference (40); cited from earlier work
[9] = tested on: collagen 1A mRNA expression by normal human lung fibroblasts; test: Collagen A1 gene expression by RT-PCR in primary normal lung fibroblasts; assay type: cell-based
Experimental: Asthma is characterized by airway structural changes, including sub-epithelial collagen deposition, that may be a cause for the chronicity of the disease. An imbalance between collagen synthesis and its degradation by fibroblasts may be involved in this process (56). In preliminary experiments, we investigated the effects of nicotinic agonists on collagen A1 synthesis produced by primary normal fibroblasts. Collagen A1 gene expression was evaluated by RT-PCR.
The results are expressed percentage gene expression in agonists treated cells compared to non-treated cells.

[10] = tested on: SR-induced inflammation in mice; test: Short term SR-induced acute lung inflammation in mice, BAL cells; assay type: in vivo
Source text: The Intranasal instillation of Saccharopolyspora rectivirgula (SR) antigens, the causative agent for farmer's lung, to mice, induces a prominent inflammatory response in the lung. Neutrophils are the first inflammatory cells recruited at the site of inflammation.

[11] = tested on: IL-10 mRNA expression in AMJ2-C11 cells; test: IL-10 mRNA expression by RT-PCR in AMJ2-C11 cells; assay type: cell-based, mouse
Experimental: (§3) The effect of nicotine or DMPP treatment on AMJ2-C11 cells was tested on TNF-α, IL-10 mRNA expression by RT-PCR. These cytokines are involved in the development of pulmonary inflammatory diseases such as HP, asthma and sarcoidosis (52-55). […] Reference is made to FIG. 3 where results are expressed as a % of expression, 100% being attributed to the LPS alone group. The intensity of the band was obtained by dividing the intensity of the TNF-α band by that of β-actin. […] Reference is made to FIG. 4 where results are expressed as described in FIG. 5.

IL-4 mRNA expression = IL-4 mRNA expression induced by a 24 h LPS stimulation; assay type: cell-based; settings: LPS stimulation 24 h, 40 μM
Experimental: The effect of agonist treatment on mRNA expression of IL-4, a cytokine that is well known to be involved in the development of asthma, was also tested (53). […] Cells were treated with different doses (40 to 160 μM for both nicotine and DMPP).

[12] = tested on: TNF-α mRNA expression in AMJ2-C11 cells; test: TNF-α mRNA expression by RT-PCR in AMJ2-C11 cells; assay type: cell-based, mouse
Experimental: as §3

[13] = tested on: CD80 expression on AMJ2-C11 cells; test: B7 (CD80) molecule expression on AMJ2-C11 cells; assay type: cell-based, mouse; settings: LPS (0.1 μg/ml) stimulated, 40 μM for 48 h; LPS alone 38%
Experimental: The effects of nicotine and DMPP on B7 (CD80) molecule expression were tested in vitro. AMJ2-C11 cells (mouse alveolar macrophages, from the ATCC) were incubated with 40 μM nicotine or DMPP and stimulated with LPS (0.1 μg/ml) or SR antigen (50 μg/ml) for 48 hours.

[14] = tested on: CD86 expression on alveolar macrophages; test: CD86 expression in SR-stimulated BAL cells of a normal patient; assay type: cell-based, human; settings: SR-stimulated alveolar macrophages
Experimental: A broncho-alveolar lavage was performed on a normal patient, and alveolar macrophages were isolated.

[15] = tested on: Saccharopolyspora rectivirgula (SR) antigen-induced HP in mice; settings: IP nicotine 0.5 to 2.0 mg/kg twice a day
IFN-γ mRNA = settings: pulmonary macrophages and lymphocytes from nicotine treated animals, anti-CD3 + IL-2
[16] = purified blood eosinophils, Matrigel

C[N+]1(C)CCCN(c2ccccc2)CC1 (as salt: iodide) [ASM-002, 1,1-dimethyl-4-phenylhomopiperazinium iodide]
melting point: 158 to 160 °C

C[N+]1(C)CCCN(c2ccccc2)CC1 [ASM-002, 1,1-dimethyl-4-phenylhomopiperazinium iodide]
cellular inflammation in the lungs of asthmatic dogs [1]: inhibits significantly
lung resistance induced by metacholine compared to untreated OVA-sensitized mice [2]: significant reduction (return to baseline levels)
dogs with decreased lung resistance / improved hyper-responsiveness [3]: 7 out of 12
ED50 [4]: 0.71 mg/kg
TNF release ([5]; 40 μM, mean of 5 subjects): inhibits TNF release
EC50 ([5]; Monocyte, LPS-stimulated human blood monocytes, n=6, read-out: EC50, inhibition of TNF release): 3000 nM
relaxing effect on pre-contracted mice tracheas [6]: relaxing effect
relaxing effect on pre-contracted human bronchi (human bronchial rings): relaxing effect
LTC4 production ([7]; 80 μM, PAF, eosinophils of asthmatic patients, 6 patients, p=0.0007): significant inhibition
LTC4 [7]: 246.40 pg/mL
relaxing effect on pre-contracted dog bronchi (dog bronchial rings): relaxing effect

CC[N+]1(C)CCN(c2ccccc2)CC1 [ASM-003]
LTC4 [7]: 613.90 pg/mL

CC[N+]1(CC)CCN(c2ccccc2)CC1 [ASM-005]
effect on TNF release ([5]; monocytes of asthmatic patients, LPS 100 ng/ml 18 h, n=8 to 10): Except for ASM-005, all analogs tested had an inhibitory effect

O=c1cccc2n1C[C@@H]1CNC[C@H]2C1 [cytisine]
inhibition of eosinophil transmigration (blood eosinophils): reduce blood eosinophil transmigration

Clc1ccc(C2CC3CCC2N3)cn1 (stereo not drawn) [epibatidine, Epibatidine]
analgesic potential, times that of morphine [8]: two hundred
collagen A1 gene expression ([9]; primary normal fibroblasts, RT-PCR): inhibitory effect is also observed
inhibition of eosinophil transmigration (blood eosinophils; [16]): reduce blood eosinophil transmigration
effect on SR-induced inflammation (BAL cells) ([10]; mouse, in vivo): marked inhibitory effect; also recorded: significant inhibitory effect

CNC1(C)C2CCC(C2)C1(C)C (stereo not drawn) [mecamylamine]
effect of the antagonist on the DMPP inhibition of eosinophil transmigration (blood eosinophils; together with DMPP): reverses the effect of DMPP

CN1CCCC1c1cccnc1 (stereo not drawn) [nicotine, Nicotine]
reduction of IL-10 mRNA expression ([11]; LPS stimulated 24 h, 40 μM): 88% and 87%
drop of IL-10 mRNA expression ([11]; SR-stimulated 24 h, 160 μM): 60%
reduction of IL-4 mRNA expression (IL-4 mRNA expression): ≤ 90%
reduction of IL-4 mRNA expression (IL-4 mRNA expression; listed as Nicotine): up to 92%
reduction of TNF-α mRNA expression ([12]; LPS stimulated 24 h, 40 μM): 98%
effect on TNF-α mRNA expression ([12]; SR-stimulated 24 h, only the 160 μM dose (80 and 160 μM tested)): had an effect on mRNA expression
percentage of expression of CD80 [13]: 20%
collagen A1 gene expression ([9]; 1 and 10 μM): slight inhibitory effect
collagen A1 gene expression ([9]; higher concentrations (above 10 μM)): no effects
inhibition of eosinophil transmigration (blood eosinophils; [16]): reduce blood eosinophil transmigration
expression of CD86 relative to non-treated cells [14]: about half of the expression
lymphocyte population in BAL [15]: decrease in the lymphocyte population
number of total cells in bronchoalveolar lavage (BAL) [15]: significantly reduced
effect on SR-induced inflammation (BAL cells) ([10]; intra-nasal every 6 h, 24 h after SR, DMPP 0.5 mg/kg, nicotine 0.5 mg/kg, epibatidine 2 μg/kg): marked inhibitory effect; also recorded: significant inhibitory effect
expression of IFN-γ mRNA vs cells from non-treated animals (IFN-γ mRNA): significantly lower expression

C[C@]12C=CC(=O)C=C1CC[C@@H]1[C@@H]2C(=O)C[C@@]2(C)[C@H]1CC[C@]2(O)C(=O)CO [prednisone]
dogs with decreased lung resistance / improved hyper-responsiveness [3]: None of the 12 dogs
